Source: PMC11439681, “The identification of potent dual-target monopolar spindle 1 (MPS1) and histone deacetylase 8 (HDAC8) inhibitors through pharmacophore modeling, molecular docking, molecular dynamics simulations, and biological evaluation” (Frontiers in Pharmacology, 2024)

Legend:
[1] = tested on: Ace-K62 of PKM2; experiment: Gene expression analysis of Ace-K62 of PKM2 in HepG2 cells; type: cell-based, human; details: 20 h, 0.25, 1 and 5 μM
Method: Total RNA was extracted after the indicated treatments using the RNeasy Mini Kit (cat. no. 74106; QIAGEN, Hilden, Germany) following the manufacturer’s protocol. The concentration of RNA was measured on a plate reader, and then the extracted RNA was converted to cDNA using a High-Capacity RNA-to-cDNA kit from Applied Biosystems (Thermo Fisher Scientific, Inc.). Quantitative real-time polymerase chain reaction was performed in triplicate in a 96-well optical PCR plate using a QuantStudio Real-Time PCR System. Gene expression levels were evaluated using the comparative CT method. Graphical representations of the data were generated by GraphPad Prism 8.
Previous studies indicate that MPS1 inhibitor exerts its antitumor effects by downregulating the levels of phosphorylated histone H3 ([Naud et al., 2013]), while HDAC8 inhibitor achieves its antitumor activity by upregulating lysine residue 62 acetylation (Ace-K62) levels of pyruvate kinase M2 (PKM2) ([Zhang et al., 2020]). The gene expression of P-histone H3 and Ace-K62 was detected in HepG2 cells with the treatment of MPH-5 for 20 h (at the concentration of 0, 0.25, 1, and 5 μM, respectively). […] As the concentration of MPH-5 increases, the inhibitory effect on P-histone H3 and the promotional effect on Ace-K62 become more pronounced.

[2] = tested on: L02; experiment: MTT cytotoxicity assay, L02 normal cells; type: cell-based; details: Homo sapiens, 72 h cell treatment
Method: (§1) The cells (5 × 10^4 cells/well) were incubated overnight in 96-well plates. A series of solutions containing varying concentrations of inhibitors were added and incubated at 37°C for a period of 72 h. Subsequently, the culture medium was removed, followed by a subsequent incubation of the cells with a 5 mg/mL MTT stock solution for 4 h. After centrifugation, the precipitate was solubilized in DMSO and gently shaken for 15 min. Finally, the absorbance measurement at 570 nm was completed using a microplate reader. Data analysis was performed using GraphPad Prism 6.0 software.

[3] = molecular target: T1, HDAC8 (Homo sapiens, UniProt Q9BY41); experiment: In vitro HDAC8 inhibitory assay; type: biochemical
T1 construct: purchased Abcam
T1 sequence (Q9BY41 1-377): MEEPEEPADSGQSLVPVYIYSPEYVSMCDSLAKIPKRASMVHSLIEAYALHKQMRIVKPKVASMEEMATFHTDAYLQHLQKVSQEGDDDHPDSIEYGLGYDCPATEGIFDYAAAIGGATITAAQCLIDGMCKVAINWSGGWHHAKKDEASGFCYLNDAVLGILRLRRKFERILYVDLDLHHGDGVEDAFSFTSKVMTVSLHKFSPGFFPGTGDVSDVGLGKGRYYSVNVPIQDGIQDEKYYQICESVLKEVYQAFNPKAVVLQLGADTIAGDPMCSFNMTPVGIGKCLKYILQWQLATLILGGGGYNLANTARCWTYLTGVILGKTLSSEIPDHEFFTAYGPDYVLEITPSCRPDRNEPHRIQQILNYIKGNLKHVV
Method: Inhibition of HDAC8 was determined in 96-well plates. […] The assessment of fluorescence intensity was executed at 390 nm and 460 nm via a microplate reader.

[4] = tested on: drug-resistant liver cancer cells (R-HepG2); experiment: MTT cytotoxicity assay, R-HepG2; type: cell-based; details: Homo sapiens, 72 h cell treatment
Method: as §1

[5] = tested on: Li-7; experiment: MTT cytotoxicity assay, Li-7; type: cell-based; details: Homo sapiens, 72 h cell treatment
Method: as §1

[6] = tested on: panel of 68 kinases and other histone deacetylases; experiment: In vitro selectivity assay, whole panel; type: biochemical; details: read-out: IC50 on these kinases and other histone deacetylases
Method: (§2) The inhibitory effects of compound MPH-5 on a panel of 68 kinases and other histone deacetylases were evaluated to assess the selectivity profile of MPH-5. This experiment was conducted by ICE Bioscience Inc. (Beijing, China).

[7] = tested on: BEL7402; experiment: MTT cytotoxicity assay, BEL7402; type: cell-based; details: Homo sapiens, Bel-7402, 72 h cell treatment
Method: as §1

[8] = molecular target: T2, ALK (Homo sapiens, UniProt Q9UM73); experiment: In vitro selectivity assay; type: biochemical; details: selectivity panel
T2 construct: ICE Bioscience Inc. (assay service)
Method: as §2

[9] = molecular target: FYN (Homo sapiens, UniProt P06241); experiment: In vitro selectivity assay; type: biochemical; details: selectivity panel
Method: as §2

[10] = molecular target: ROS1 (Homo sapiens, UniProt P08922); experiment: In vitro selectivity assay; type: biochemical; details: selectivity panel
Method: as §2

[11] = molecular target: EPHB4 (Homo sapiens, UniProt P54760); experiment: In vitro selectivity assay; type: biochemical; details: selectivity panel
Method: as §2

[12] = molecular target: T3, EPHA3 (Homo sapiens, UniProt P29320); experiment: In vitro selectivity assay; type: biochemical; details: selectivity panel
T3 construct: ICE Bioscience Inc. (assay service)
Method: as §2

[13] = molecular target: FGFR1 (Homo sapiens, UniProt P11362); experiment: In vitro selectivity assay; type: biochemical; details: selectivity panel
Method: as §2

[14] = molecular target: T4, EPHA5 (Homo sapiens, UniProt P54756); experiment: In vitro selectivity assay; type: biochemical; details: selectivity panel
T4 construct: ICE Bioscience Inc. (assay service)
Method: as §2

[15] = molecular target: T5, NTRK1 (Homo sapiens, UniProt P04629); experiment: In vitro selectivity assay; type: biochemical; details: selectivity panel
T5 construct: ICE Bioscience Inc. (contract assay provider)
Method: as §2

[16] = molecular target: T6, PTK2 (Homo sapiens, UniProt Q05397); experiment: In vitro selectivity assay; type: biochemical; details: selectivity panel
T6 construct: ICE Bioscience Inc. (contract assay provider)
Method: as §2

[17] = molecular target: T7, SRC (Homo sapiens, UniProt P12931); experiment: In vitro selectivity assay; type: biochemical; details: selectivity panel
T7 construct: ICE Bioscience Inc. (contract assay provider)
Method: as §2

[18] = molecular target: T8, RET (Homo sapiens, UniProt P07949); experiment: In vitro selectivity assay; type: biochemical; details: selectivity panel
T8 construct: ICE Bioscience Inc. (contract assay provider)
Method: as §2

[19] = molecular target: T9, PDGFRB (Homo sapiens, UniProt P09619); experiment: In vitro selectivity assay; type: biochemical; details: selectivity panel
T9 construct: ICE Bioscience Inc. (contract assay provider)
Method: as §2

[20] = molecular target: T10, MERTK (Homo sapiens, UniProt Q12866); experiment: In vitro selectivity assay; type: biochemical; details: selectivity panel
T10 construct: ICE Bioscience Inc. (contract assay provider)
Method: as §2

[21] = molecular target: T11, EPHA4 (Homo sapiens, UniProt P54764); experiment: In vitro selectivity assay; type: biochemical; details: selectivity panel
T11 construct: ICE Bioscience Inc. (assay service)
Method: as §2

[22] = molecular target: T12, PTK2B (Homo sapiens, UniProt Q14289); experiment: In vitro selectivity assay; type: biochemical; details: selectivity panel
T12 construct: ICE Bioscience Inc. (contract assay provider)
Method: as §2

[23] = molecular target: T13, HDAC4 (Homo sapiens, UniProt P56524); experiment: In vitro selectivity assay; type: biochemical; details: selectivity panel
T13 construct: ICE Bioscience Inc. (contract assay provider)
Method: as §2

[24] = molecular target: T14, MST1R (Homo sapiens, UniProt Q04912); experiment: In vitro selectivity assay; type: biochemical; details: selectivity panel
T14 construct: ICE Bioscience Inc. (contract assay provider)
Method: as §2

[25] = molecular target: T15, DDR1 (Homo sapiens, UniProt Q08345); experiment: In vitro selectivity assay; type: biochemical; details: selectivity panel
T15 construct: ICE Bioscience Inc. (assay service)
Method: as §2

[26] = molecular target: T16, BTK (Homo sapiens, UniProt Q06187); experiment: In vitro selectivity assay; type: biochemical; details: selectivity panel
T16 construct: ICE Bioscience Inc. (assay service)
Method: as §2

T9 sequence (P09619 33-1106): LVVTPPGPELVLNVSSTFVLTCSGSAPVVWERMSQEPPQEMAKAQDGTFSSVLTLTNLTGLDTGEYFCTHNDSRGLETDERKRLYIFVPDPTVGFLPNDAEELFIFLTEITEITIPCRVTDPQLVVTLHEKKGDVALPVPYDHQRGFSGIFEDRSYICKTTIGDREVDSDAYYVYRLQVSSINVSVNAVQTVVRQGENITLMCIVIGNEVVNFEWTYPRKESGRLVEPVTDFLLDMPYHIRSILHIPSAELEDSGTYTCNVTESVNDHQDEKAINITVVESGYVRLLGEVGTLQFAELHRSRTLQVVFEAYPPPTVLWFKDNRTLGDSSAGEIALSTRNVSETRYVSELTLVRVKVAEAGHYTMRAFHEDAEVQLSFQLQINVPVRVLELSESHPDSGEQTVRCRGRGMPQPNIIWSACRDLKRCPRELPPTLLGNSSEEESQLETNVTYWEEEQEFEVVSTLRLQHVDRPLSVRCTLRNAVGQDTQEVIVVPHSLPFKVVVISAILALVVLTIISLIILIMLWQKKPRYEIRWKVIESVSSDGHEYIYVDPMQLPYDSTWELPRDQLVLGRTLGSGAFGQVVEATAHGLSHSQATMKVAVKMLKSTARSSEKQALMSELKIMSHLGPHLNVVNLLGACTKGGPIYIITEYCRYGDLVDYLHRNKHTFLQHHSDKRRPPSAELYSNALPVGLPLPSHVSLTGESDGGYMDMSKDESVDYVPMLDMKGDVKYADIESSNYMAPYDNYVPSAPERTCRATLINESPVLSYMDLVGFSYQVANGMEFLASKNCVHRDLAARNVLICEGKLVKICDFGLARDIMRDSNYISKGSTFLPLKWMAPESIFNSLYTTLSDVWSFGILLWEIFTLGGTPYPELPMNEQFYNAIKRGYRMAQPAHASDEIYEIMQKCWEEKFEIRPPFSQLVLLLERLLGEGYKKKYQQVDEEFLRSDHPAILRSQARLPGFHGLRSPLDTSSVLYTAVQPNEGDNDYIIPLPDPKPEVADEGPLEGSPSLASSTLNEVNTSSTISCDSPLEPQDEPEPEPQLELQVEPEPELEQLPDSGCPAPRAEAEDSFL
T13 sequence (P56524 whole entry): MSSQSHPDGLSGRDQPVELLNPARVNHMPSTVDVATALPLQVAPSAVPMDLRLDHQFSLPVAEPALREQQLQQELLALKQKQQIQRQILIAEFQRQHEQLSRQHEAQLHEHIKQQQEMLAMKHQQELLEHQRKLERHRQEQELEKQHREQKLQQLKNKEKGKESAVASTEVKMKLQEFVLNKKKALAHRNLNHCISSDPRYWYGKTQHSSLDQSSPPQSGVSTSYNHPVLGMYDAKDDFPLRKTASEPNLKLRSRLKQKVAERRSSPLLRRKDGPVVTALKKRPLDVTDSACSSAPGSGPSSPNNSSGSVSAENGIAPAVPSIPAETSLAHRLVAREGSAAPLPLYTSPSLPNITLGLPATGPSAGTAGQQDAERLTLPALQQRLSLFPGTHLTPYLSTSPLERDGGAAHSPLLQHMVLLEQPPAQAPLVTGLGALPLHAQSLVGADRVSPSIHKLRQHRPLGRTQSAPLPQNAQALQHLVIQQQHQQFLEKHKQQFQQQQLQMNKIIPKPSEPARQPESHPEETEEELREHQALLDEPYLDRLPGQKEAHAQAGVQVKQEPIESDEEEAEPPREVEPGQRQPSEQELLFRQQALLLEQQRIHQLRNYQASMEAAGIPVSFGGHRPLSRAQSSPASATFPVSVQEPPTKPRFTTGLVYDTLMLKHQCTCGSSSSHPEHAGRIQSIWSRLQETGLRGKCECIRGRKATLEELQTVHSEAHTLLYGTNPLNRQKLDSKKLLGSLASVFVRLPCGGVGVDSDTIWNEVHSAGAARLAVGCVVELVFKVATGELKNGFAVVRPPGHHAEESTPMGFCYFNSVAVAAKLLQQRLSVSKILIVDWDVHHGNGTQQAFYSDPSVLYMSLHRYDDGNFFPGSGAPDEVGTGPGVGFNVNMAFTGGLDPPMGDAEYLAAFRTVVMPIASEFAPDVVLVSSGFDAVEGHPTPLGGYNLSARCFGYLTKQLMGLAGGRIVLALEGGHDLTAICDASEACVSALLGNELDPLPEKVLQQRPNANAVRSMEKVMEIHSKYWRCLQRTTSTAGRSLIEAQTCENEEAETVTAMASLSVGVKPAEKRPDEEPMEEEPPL
FYN, sequence (P06241 whole entry): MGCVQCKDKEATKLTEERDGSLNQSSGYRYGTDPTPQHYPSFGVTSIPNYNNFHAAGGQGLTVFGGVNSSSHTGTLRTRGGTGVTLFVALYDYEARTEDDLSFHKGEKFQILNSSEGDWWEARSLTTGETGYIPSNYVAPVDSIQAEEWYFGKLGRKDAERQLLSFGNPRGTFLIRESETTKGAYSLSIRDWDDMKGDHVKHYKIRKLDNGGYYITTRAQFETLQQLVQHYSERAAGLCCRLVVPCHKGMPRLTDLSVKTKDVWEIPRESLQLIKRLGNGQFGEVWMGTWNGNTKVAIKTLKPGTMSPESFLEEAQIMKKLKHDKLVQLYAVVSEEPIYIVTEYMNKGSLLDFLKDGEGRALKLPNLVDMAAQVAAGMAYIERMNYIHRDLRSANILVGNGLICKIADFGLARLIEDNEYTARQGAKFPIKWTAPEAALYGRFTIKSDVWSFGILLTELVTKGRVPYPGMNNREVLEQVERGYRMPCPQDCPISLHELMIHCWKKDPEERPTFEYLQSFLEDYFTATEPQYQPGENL
T12 sequence (Q14289 whole entry): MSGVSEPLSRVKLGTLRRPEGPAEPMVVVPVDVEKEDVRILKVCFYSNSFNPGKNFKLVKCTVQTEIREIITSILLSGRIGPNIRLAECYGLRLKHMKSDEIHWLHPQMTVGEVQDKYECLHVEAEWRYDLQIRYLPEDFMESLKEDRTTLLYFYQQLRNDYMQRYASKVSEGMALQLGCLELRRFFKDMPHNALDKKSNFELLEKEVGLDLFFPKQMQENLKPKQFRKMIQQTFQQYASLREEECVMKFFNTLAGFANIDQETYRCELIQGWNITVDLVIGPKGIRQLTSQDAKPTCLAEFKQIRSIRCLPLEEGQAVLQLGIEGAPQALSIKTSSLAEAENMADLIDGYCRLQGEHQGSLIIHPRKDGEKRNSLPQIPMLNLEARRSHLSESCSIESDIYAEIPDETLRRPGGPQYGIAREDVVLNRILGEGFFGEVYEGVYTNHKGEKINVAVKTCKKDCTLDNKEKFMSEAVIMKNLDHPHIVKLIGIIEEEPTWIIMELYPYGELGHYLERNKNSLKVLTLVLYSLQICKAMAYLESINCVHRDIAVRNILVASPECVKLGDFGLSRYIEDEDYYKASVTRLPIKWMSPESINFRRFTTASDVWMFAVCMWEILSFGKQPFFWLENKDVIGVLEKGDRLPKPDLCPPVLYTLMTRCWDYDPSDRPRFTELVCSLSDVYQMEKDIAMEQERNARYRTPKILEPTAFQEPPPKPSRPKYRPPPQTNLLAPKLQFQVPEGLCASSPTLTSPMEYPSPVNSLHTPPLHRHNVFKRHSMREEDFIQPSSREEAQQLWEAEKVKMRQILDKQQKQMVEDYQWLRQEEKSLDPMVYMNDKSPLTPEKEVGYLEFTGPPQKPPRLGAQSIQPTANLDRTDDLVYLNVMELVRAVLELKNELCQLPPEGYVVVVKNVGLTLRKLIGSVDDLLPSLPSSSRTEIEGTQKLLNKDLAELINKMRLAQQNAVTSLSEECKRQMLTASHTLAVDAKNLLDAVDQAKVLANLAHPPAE
T8 sequence (P07949 29-1114): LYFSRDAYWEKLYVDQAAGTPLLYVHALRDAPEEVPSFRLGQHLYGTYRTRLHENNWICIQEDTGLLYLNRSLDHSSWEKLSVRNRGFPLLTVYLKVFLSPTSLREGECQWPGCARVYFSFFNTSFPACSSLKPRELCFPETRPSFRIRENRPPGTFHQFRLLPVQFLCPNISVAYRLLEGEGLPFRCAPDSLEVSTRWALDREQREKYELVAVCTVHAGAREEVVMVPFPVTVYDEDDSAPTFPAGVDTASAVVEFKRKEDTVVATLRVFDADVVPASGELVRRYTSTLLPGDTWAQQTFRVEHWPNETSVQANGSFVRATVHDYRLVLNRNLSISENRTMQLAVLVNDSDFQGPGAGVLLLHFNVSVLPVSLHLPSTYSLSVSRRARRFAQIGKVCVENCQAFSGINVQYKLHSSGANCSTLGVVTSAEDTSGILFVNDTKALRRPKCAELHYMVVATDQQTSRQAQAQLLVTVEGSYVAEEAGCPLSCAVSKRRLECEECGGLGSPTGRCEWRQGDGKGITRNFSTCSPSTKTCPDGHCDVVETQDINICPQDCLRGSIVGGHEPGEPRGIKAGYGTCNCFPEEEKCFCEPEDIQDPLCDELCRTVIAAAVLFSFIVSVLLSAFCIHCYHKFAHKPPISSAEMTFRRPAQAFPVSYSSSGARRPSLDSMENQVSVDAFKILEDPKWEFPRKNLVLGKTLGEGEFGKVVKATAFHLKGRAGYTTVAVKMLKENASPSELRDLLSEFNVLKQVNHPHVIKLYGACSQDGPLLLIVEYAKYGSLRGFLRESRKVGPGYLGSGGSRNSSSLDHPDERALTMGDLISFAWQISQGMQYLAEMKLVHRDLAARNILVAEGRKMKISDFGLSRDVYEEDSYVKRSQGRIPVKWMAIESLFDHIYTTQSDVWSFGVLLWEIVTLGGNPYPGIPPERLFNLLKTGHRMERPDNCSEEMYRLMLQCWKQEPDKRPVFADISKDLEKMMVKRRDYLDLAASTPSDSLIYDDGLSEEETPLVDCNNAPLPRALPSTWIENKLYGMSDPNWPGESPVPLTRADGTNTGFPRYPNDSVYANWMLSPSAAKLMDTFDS

Cn1cc(-c2cc3cnc(Nc4ccc(-c5cncn5/C=C/C(=O)NO)cc4Cl)cc3n2C(=O)OC(C)(C)C)cn1 [MPH-5]
K62 acetylation levels (Ace-K62 of PKM2) [1]: dose-dependent regulation | IC50 [2]: > 10 µM | IC50 ([3]; 90 min at 37°C): 0.00607 ± 0.00037 µM | HDAC8 IC50 of MPH-5 relative to belinostat ([3]; vs belinostat): about 4 fold | IC50 [4]: 0.27 µM | IC50 [5]: 0.64 µM | IC50 [6]: > 10 µM | IC50 [7]: 0.86 µM | IC50 [8]: > 10 µM | IC50 [9]: > 10 µM | IC50 [10]: > 10 µM | IC50 [11]: > 10 µM | IC50 [12]: > 10 µM | IC50 [13]: > 10 µM | IC50 [14]: > 10 µM | IC50 [15]: > 10 µM | IC50 [16]: > 10 µM | IC50 [17]: > 10 µM | IC50 [18]: > 10 µM | IC50 [19]: > 10 µM | IC50 [20]: > 10 µM | IC50 [21]: > 10 µM | IC50 [22]: > 10 µM | IC50 [23]: > 10 µM | IC50 [24]: > 10 µM | IC50 [25]: > 10 µM | IC50 [26]: > 10 µM
